Experimental data taken from patent publication US9481670B2, “Triazine compounds” (Sphaera Pharma PTE. Ltd., priority 2011, dated 2016).
Like-named read-outs stand apart in the source and are kept apart here.

What was measured:
[1] = Pharmacokinetic study, oral dosing, plasma concentration by LC-MS/MS; assay type: in vivo; conditions: female swiss mice, fasted overnight, oral 3 mg/kg in PEG 400, plasma
Procedure: For pharmacokinetic study female swiss mice were used. The swiss mice weighing 25-30 g, fasted overnight, were orally dosed at 3 mg/kg body weight of compound in PEG 400. Blood samples (40 μl) were collected from each mouse by retro-orbital bleeding at 0, 0.16, 0.5, 1, 2, 4, 6 and 8 h after dosing into the tubes containing heparin as an anticoagulant. The samples were stored in ice and within 1 h after collection samples were centrifuged at 10000 RPM at 4° C. Plasma was collected and stored at −80° C. until analyis. The concentration of compounds in plasma were determined by liquid chromatography-tandem mass spectrometry (LC-MS/MS).
The protein precipitation method was used to extract the compounds. Acetonitrile was added to plasma, vortexed and centrifuged at 10000 RPM at 4° C. The supenatent was collected and injected onto the column. A CTC HTC PAL auto sampler (LEAP Technologies) linked to a Shimadzu SCL-10A VP HTC controller with LC-10AD pumps (Shimadzu), coupled with a Sciex API 3000 triple quadrupole mass spectrometer were used for the LC-MS/MS analysis. Some compounds as per the present invention are represented in the table below, were tested and their PK values are reported in Table 2.

PI3K alpha = molecular target: T1, PI3K alpha (Homo sapiens, UniProt P42336); test: P110 Alpha TR-FRET Assay (PI3K alpha kinase assay, HTRF Transcreener ADP Assay); assay type: biochemical; conditions: PI3K (WT)
T1 construct: purchased Millipore Upstate
T1 sequence (P42336 whole entry): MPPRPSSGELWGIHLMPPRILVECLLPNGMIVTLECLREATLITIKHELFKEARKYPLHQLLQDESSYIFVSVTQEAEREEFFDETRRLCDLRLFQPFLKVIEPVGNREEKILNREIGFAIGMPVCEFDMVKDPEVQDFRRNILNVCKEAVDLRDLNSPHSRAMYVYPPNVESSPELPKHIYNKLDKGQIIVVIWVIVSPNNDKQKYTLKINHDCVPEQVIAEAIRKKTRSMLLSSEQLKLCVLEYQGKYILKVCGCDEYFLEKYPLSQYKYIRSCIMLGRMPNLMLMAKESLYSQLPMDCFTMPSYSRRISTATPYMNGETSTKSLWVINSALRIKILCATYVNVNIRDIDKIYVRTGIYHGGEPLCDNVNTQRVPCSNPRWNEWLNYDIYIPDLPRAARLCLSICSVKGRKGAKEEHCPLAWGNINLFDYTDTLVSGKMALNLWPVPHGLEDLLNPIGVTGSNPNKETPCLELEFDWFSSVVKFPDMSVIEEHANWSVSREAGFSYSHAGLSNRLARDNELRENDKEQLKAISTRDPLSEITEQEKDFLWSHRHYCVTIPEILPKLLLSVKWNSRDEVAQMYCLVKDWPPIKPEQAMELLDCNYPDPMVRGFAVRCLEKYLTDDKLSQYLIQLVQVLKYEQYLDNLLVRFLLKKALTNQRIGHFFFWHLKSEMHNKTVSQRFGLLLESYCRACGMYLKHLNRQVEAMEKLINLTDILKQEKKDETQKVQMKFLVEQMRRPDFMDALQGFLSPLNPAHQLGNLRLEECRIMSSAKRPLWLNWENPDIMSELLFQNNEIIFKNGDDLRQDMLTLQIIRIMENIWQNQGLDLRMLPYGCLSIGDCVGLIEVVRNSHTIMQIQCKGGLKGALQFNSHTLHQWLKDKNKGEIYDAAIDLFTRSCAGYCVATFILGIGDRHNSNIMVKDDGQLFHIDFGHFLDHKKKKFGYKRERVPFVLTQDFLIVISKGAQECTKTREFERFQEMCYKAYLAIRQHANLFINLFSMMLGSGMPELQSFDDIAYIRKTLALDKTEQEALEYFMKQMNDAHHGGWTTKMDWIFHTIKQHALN
T1 sequence (P27986 whole entry partner): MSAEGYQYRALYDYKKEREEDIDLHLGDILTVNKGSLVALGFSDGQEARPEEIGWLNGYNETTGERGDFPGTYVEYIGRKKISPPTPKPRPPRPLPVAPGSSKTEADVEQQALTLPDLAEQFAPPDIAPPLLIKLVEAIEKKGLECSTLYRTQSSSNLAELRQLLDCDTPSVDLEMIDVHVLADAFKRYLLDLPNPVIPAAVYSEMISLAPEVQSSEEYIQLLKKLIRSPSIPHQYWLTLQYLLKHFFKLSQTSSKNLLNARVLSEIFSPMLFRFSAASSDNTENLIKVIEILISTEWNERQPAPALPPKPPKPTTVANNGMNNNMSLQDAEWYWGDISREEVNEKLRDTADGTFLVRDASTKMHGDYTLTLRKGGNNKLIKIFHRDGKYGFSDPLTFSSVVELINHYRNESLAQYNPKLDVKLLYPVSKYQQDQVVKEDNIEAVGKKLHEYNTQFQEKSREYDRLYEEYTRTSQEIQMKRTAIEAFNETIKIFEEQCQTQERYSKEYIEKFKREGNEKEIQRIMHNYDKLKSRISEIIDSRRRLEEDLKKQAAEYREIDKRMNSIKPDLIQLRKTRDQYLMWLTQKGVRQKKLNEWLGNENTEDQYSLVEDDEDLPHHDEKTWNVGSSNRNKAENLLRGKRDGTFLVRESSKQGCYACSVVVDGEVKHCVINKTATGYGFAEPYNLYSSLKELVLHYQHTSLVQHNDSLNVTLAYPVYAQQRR
How it was run: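 HTRF Transcreener ADP read-out of ADP formed by PI3K (50 ng enzyme) in 50 mM HEPES pH 7.5, 5 mM MgCl2, 1 mM DTT, 30 μM Na3VO4. Compound preincubated with enzyme 20 min; reaction started with 10 μM ATP and 5 μM PIP2, run 20 min, then ADP-d2/anti-ADP cryptate detection for 1 h.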

human tumor xenografts = conditions: mouse, in vivo; cited from earlier work

Q: What does the source list for `CNC(=O)c1ccc(Oc2nc(-c3cccc4[nH]ncc34)nc(N3CCOCC3)n2)cc1` [Compound 1113, 4-14-{[4-1-(1H-indazol-4-yl)-6-5-(morpholin-4-yl)-1,3,5-triazin-2-yl]oxy}-N-methylbenzamide]?
A: Cmax ([1]; mouse): 1240 nM; AUC ([1]; mouse, read-out: AUC): 5.25 µM·h; half-life ([1]; mouse, read-out: Elimination t1/2 (converted)): 4.86 h; Tmax ([1]; mouse, read-out: Tmax): 1 h

Q: With `CN(C)C(=O)N1CCC(Oc2nc(-c3cccc4[nH]ncc34)nc(N3CCOCC3)n2)CC1` [Compound 1126, 4-14-{[4-1-(1H-indazol-4-yl)-6-5-(morpholin-4-yl)-1,3,5-triazin-2-yl]oxy}-N,N-dimethylpiperidine-1-carboxamide] as the compound, how does the IC50 (PI3K alpha) read?
A: < 5 µM

Q: And the AUC [1]?
A: 1618 nM-hr

Q: What about the Cmax [1] of the same compound?
A: 535 nM

Q: What about the “Elimination t1/2” value [1] of the same compound?
A: 3.15 h

Q: And the Tmax [1]?
A: 0.83 h

Q: For `CN(C)C(=O)[C@H]1CC[C@H](Oc2nc(-c3cccc4[nH]ncc34)nc(N3CCOCC3)n2)CC1` [Compound 1144, (1r,4r)-4-21-{[4-1-(1H-indazol-4-yl)-6-5-(morpholin-4-yl)-1,3,5-triazin-2-yl]oxy}-N,N-dimethylcyclohexane-1-carboxamide], which IC50 (PI3K alpha) is on record?
A: < 5 µM

Q: And the AUC [1]?
A: 5849 nM-hr

Q: And the Cmax [1]?
A: 1660 nM

Q: And the “Elimination t1/2” value [1]?
A: 4.34 h

Q: What about the Tmax [1] of the same compound?
A: 1.33 h

Q: With `O=c1cc(N2CCOCC2)oc2c(-c3ccccc3)cccc12` [LY294002] as the compound, how does the tolerability (human tumor xenografts) read?
A: well-tolerated
